Assay results reported in patent US9708336B2, “Metallo-beta-lactamase inhibitors” (priority 2014, dated 2017).
Read-outs that look alike come from different tables or passages of the source.

Experiments:
IMP-1 = IMP-1 (Serratia marcescens, UniProt P52699); assay: biochemical; format: biochemical; conditions: read-out: IMP-1 IC50
[1] = system: Serratia marcescens expressing IMP-1 (CL5741); assay: Antibiotic potentiation activity: synergistic concentration (MITC95) with imipenem, OD600 growth; format: cell-based
How it was run: (§1)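 Test compound was combined with 4 μg/ml imipenem (or optionally 1 μg/ml), or with no antibiotic, against saline-suspended colonies diluted 1:100 in 1.1×CAMHB. Strains were E. coli NDM-1, S. marcescens IMP-1 and K. pneumoniae VIM-1. Plates were incubated 22–24 h at 35 °C before absorbance (OD600) readout.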

[2] = system: Escherichia coli expressing NDM-1 (CLB30016); assay: as above; format: cell-based
How it was run: as §1

[3] = system: Klebsiella pneumoniae expressing VIM-1 (IHMA599644); assay: as above; format: cell-based
How it was run: as §1

VIM-1 = VIM-1 (Pseudomonas aeruginosa (strain ATCC 15692 / DSM 22644 / CIP 104116 / JCM 14847 / LMG 12228 / 1C / PRS 101 / PAO1), UniProt A0A0F7KYQ8); assay: Enzyme activity: determination of IC50, fluorescence assay with CCF2-FA substrate (VIM-1); format: biochemical
NDM-1 = NDM-1 (Klebsiella pneumoniae, UniProt C7C422); assay: biochemical; format: biochemical; conditions: read-out: NDM-1 IC50
[4] = IMP-1 enzyme, CCF2-FA fluorescence assay
[5] = Serratia marcescens expressing IMP-1 (CL5741), 95% growth inhibition
[6] = Escherichia coli expressing NDM-1 (CLB30016), 95% growth inhibition
[7] = Klebsiella pneumoniae expressing VIM-1 (IHMA599644), 95% growth inhibition
[8] = VIM-1 enzyme, CCF2-FA fluorescence assay, read-out: VIM-1 IC50
[9] = NDM-1 enzyme, CCF2-FA fluorescence assay
[10] = IMP-1 enzyme, CCF2-FA substrate
[11] = Serratia marcescens CL5741 (IMP-1), 95% growth inhibition
[12] = (CLB30016, NDM-1), 95% growth inhibition
[13] = Klebsiella pneumoniae IHMA599644 (VIM-1), 95% growth inhibition
[14] = VIM-1 enzyme, CCF2-FA substrate, read-out: VIM-1 IC50
[15] = NDM-1 enzyme, CCF2-FA substrate
[16] = VIM-1 IC50, VIM-1 enzyme, CCF2-FA substrate
[17] = fluorescence assay with CCF2-FA substrate
[18] = CL5741 (IMP-1), 95% inhibition of bacterial growth
[19] = CLB30016 (NDM-1), 95% inhibition of bacterial growth
[20] = IHMA599644 (VIM-1), 95% inhibition of bacterial growth
[21] = fluorescence assay with CCF2-FA substrate, read-out: VIM-1 IC50

Chain of IMP-1 (P52699 whole entry, looked up): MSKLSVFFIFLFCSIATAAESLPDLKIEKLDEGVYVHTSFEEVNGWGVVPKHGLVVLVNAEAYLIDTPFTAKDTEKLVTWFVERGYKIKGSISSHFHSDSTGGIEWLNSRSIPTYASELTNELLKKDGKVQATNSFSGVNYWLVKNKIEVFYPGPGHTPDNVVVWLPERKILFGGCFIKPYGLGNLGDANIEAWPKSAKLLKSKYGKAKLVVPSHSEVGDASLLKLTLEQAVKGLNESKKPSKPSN
Chain of NDM-1 (C7C422 whole entry, looked up, species assumed): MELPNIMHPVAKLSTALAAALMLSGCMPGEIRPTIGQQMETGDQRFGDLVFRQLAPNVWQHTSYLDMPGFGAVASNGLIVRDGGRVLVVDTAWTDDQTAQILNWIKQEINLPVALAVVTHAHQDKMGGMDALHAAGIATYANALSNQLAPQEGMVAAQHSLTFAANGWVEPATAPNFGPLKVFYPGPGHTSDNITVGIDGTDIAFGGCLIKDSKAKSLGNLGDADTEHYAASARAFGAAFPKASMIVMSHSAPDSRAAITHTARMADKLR

| SMILES | IC50 (IMP-1; [10]) [nM] | Serratia marcescens MITC95 [1, 11] [µM] | Escherichia coli MITC95 [2, 12] [µM] | Klebsiella pneumoniae MITC95 [3, 13] [µM] | IC50 (VIM-1; [14]) [nM] | IC50 (NDM-1; [15]) [nM] | other results |
| --- | --- | --- | --- | --- | --- | --- | --- |
| NS(=O)(=O)c1c(CC2CCNCC2)ccc(-c2ccc(C3CCN(CC4CNC4)CC3)cc2)c1-c1nn[nH]n1 [Example 470, 4′-(1-(azetidin-3-ylmethyl)piperidin-4-yl)-4-(piperidin-4-ylmethyl)-2-(2H-tetrazol-5-yl)-[1,1′-biphenyl]-3-sulfonamide] | – | – | – | – | – | – | IC50 (IMP-1; [4]): 3.23 nM; Serratia marcescens MITC95 [1, 5]: 1.563 µM; Escherichia coli MITC95 [2, 6]: 0.7813 µM; Klebsiella pneumoniae MITC95 [3, 7]: 12.5 µM; IC50 (VIM-1; [8]): 101 nM; IC50 (NDM-1; [9]): 27 nM |
| NS(=O)(=O)c1c(CC2CNC2)ccc(-c2cnc3ccccn23)c1-c1nn[nH]n1 [Example 546, 6-(azetidin-3-ylmethyl)-3-(imidazo[1,2-a]pyridin-3-yl)-2-(2H-tetrazol-5-yl)benzenesulfonamide] | 178 | 12.5 | 1.563 | 12.5 | 38.6 | 33.8 | – |
| NS(=O)(=O)c1c(CCCCCO)ccc(CCCCCO)c1-c1nn[nH]n1 [Example 542, 3,6-Bis(5-hydroxypentyl)-2-(2H-tetrazol-5-yl)benzenesulfonamide] | 7.9 | 6.25 | 25 | 100 | 6.43 | 11.5 | – |
| NS(=O)(=O)c1c(CC[C@H]2CC[C@H](N)CC2)ccc(-c2ccc(C3CCNC3)cc2)c1-c1nnn[nH]1 (stereo partly drawn) [Example 584, 4-(2-((1r,4s)-4-aminocyclohexyl)ethyl)-4′-(pyrrolidin-3-yl)-2-(1H-tetrazol-5-yl)-[1,1′-biphenyl]-3-sulfonamide] | 10.2 | 1.563 | 1.563 | 6.25 | 1.61 | 2.05 | – |
| NC(=O)c1cc2cccc(-c3ccc(C(F)(F)F)c(S(N)(=O)=O)c3-c3nn[nH]n3)c2[nH]1 [Example 528, 7-(3-Sulfamoyl-2-(2H-tetrazol-5-yl)-4-(trifluoromethyl)phenyl)-1H-indole-2-carboxamide] | 0.425 | 3.125 | 1.563 | 12.5 | 0.146 | 0.0248 | – |
| NS(=O)(=O)c1c(C(F)(F)F)ccc(-c2cnc(N3CCNCC3)nc2)c1-c1nnn[nH]1 [Example 706, 3-(2-piperazin-1-ylpyrimidin-5-yl)-2-(1H-tetrazol-5-yl)-6-(trifluoromethyl)benzenesulfon-amide] | 12.4 | 6.25 | 3.125 | 1.563 | – | 4.52 | IC50 (VIM-1; [16]): 0.632 nM |
| N=C(N)N1Cc2ccc(-c3ccc(C(F)(F)F)c(S(N)(=O)=O)c3-c3nn[nH]n3)cc2C1 [Example 446, 5-(3-sulfamoyl-2-(2H-tetrazol-5-yl)-4-(trifluoromethyl)phenyl)isoindoline-2-carboximidamide] | – | – | – | – | – | – | IC50 (IMP-1; [4]): 19.4 nM; Serratia marcescens MITC95 [1, 5]: 0.3906 µM; Escherichia coli MITC95 [2, 6]: 1.563 µM; Klebsiella pneumoniae MITC95 [3, 7]: 1.563 µM; IC50 (VIM-1; [8]): 0.252 nM; IC50 (NDM-1; [9]): 15.4 nM |
| Cc1cc(N)ncc1Cc1cccc(S(N)(=O)=O)c1-c1nn[nH]n1 [Example 573, 3-((6-amino-4-methylpyridin-3-yl)methyl)-2-(2H-tetrazol-5-yl)benzenesulfonamide] | 668 | 12.5 | 0.7813 | 12.5 | 41.4 | 38.6 | – |
| NS(=O)(=O)c1c(C(F)(F)F)ccc(-c2ccc(C3CCN(C[C@H]4CNCCO4)CC3)cc2)c1-c1nnn[nH]1 [Example 670, 4′-{1-[(2R)-morpholin-2-ylmethyl]piperidin-4-yl}-2-(1H-tetrazol-5-yl)-4-(trifluoromethyl)biphenyl-3-sulfonamide] | 1.08 | 3.125 | 1.563 | 25 | 3.53 | 4.11 | – |
| NS(=O)(=O)c1c(CC[C@H]2CC[C@@H](N)CC2)ccc(-c2ccc(C3CNC3)cc2)c1-c1nnn[nH]1 [Example 600, 4-(2-((1s,4r)-4-aminocyclohexyl)ethyl)-4′-(azetidin-3-yl)-2-(1H-tetrazol-5-yl)-[1,1′-biphenyl]-3-sulfonamide] | 43.8 | 6.25 | 1.563 | 3.125 | – | 2.56 | IC50 (VIM-1; [16]): 0.861 nM |
| NS(=O)(=O)c1c(C(F)(F)F)ccc(-c2ccnc3ccccc23)c1-c1nn[nH]n1 [Example 273, 3-(quinolin-4-yl)-2-(2H-tetrazol-5-yl)-6-(trifluoromethyl)benzenesulfonamide] | – | – | – | – | – | – | IC50 (IMP-1; [4]): 3.21 nM; Serratia marcescens MITC95 [1, 5]: 0.3906 µM; Escherichia coli MITC95 [2, 6]: 4.688 µM; Klebsiella pneumoniae MITC95 [3, 7]: 6.25 µM; IC50 (VIM-1; [8]): 0.165 nM; IC50 (NDM-1; [9]): 0.581 nM |
| Nc1cnc(-c2cccc(S(N)(=O)=O)c2-c2nnn[nH]2)cn1 [Example 402, 3-(5-aminopyrazin-2-yl)-2-(1H-tetrazol-5-yl)benzenesulfonamide] | – | – | – | – | – | – | IC50 (IMP-1; [4]): 389 nM; Serratia marcescens MITC95 [1, 5]: 6.25 µM; Escherichia coli MITC95 [2, 6]: 0.3906 µM; Klebsiella pneumoniae MITC95 [3, 7]: 25 µM; IC50 (VIM-1; [8]): 349 nM; IC50 (NDM-1; [9]): 8.09 nM |
| CN1CC(NCc2ccc(-c3cccc(S(N)(=O)=O)c3-c3nnn[nH]3)cc2)C1 [Example 331, 4′-(((1-methylazetidin-3-yl)amino)methyl)-2-(1H-tetrazol-5-yl)-[1,1′-biphenyl]-3-sulfonamide] | – | – | – | – | – | – | IC50 (IMP-1; [4]): 392 nM; Serratia marcescens MITC95 [1, 5]: 6.25 µM; Escherichia coli MITC95 [2, 6]: 1.172 µM; Klebsiella pneumoniae MITC95 [3, 7]: 150 µM; IC50 (VIM-1; [8]): 1190 nM; IC50 (NDM-1; [9]): 30.6 nM |
| NS(=O)(=O)c1c(C(F)(F)F)ccc(-c2ccc(C3CCN(C[C@@H]4CCCN4)CC3)cc2)c1-c1nnn[nH]1 [Example 669, 4′-{1-[(2S)-pyrrolidin-2-ylmethyl]piperidin-4-yl}-2-(1H-tetrazol-5-yl)-4-(trifluoromethyl)biphenyl-3-sulfonamide] | 0.688 | 2.344 | 2.344 | >200 | – | 3.92 | IC50 (VIM-1; [16]): 8.99 nM |
| NS(=O)(=O)Cc1cccc(-c2ccc(C(F)(F)F)c(S(N)(=O)=O)c2-c2nnn[nH]2)c1 [Example 737, 3′-(sulfamoylmethyl)-2-(1H-tetrazol-5-yl)-4-(trifluoromethyl)biphenyl-3-sulfonamide] | 3.02 | 3.125 | 6.25 | 25 | – | 4.95 | IC50 (VIM-1; [16]): 4.29 nM |
| NCCNC1CCN(c2ccc(C(F)(F)F)c(S(N)(=O)=O)c2-c2nnn[nH]2)CC1 [Example 829, 3-[4-(2-aminoethylamino)-1-piperidyl]-2-(1H-tetrazol-5-yl)-6-(trifluoromethyl)benzenesulfonamide] | – | – | – | – | – | – | IC50 (IMP-1; [17]): 93.3 nM; Serratia marcescens MITC95 [1, 18]: 0.9766 µM; Escherichia coli MITC95 [2, 19]: 0.7813 µM; Klebsiella pneumoniae MITC95 [3, 20]: 0.7813 µM; IC50 (VIM-1; [21]): 1.08 nM; IC50 (NDM-1; [17]): 59.8 nM |
| NS(=O)(=O)c1c(C(F)(F)F)ccc(-c2ccc(C3CCN(C4CC5(CCNCC5)C4)CC3)cc2)c1-c1nnn[nH]1 [Example 797, 4′-[1-(7-azaspiro[3.5]non-2-yl)piperidin-4-yl]-2-(1H-tetrazol-5-yl)-4-(trifluoromethyl)biphenyl-3-sulfonamide] | – | – | – | – | – | – | IC50 (IMP-1; [17]): 1.51 nM; Serratia marcescens MITC95 [1, 18]: 3.125 µM; Escherichia coli MITC95 [2, 19]: 3.125 µM; Klebsiella pneumoniae MITC95 [3, 20]: 25 µM; IC50 (VIM-1; [21]): 9.92 nM; IC50 (NDM-1; [17]): 5.57 nM |
| NS(=O)(=O)c1cccc(-c2cccc3sc(NC4CCN(CCF)CC4)nc23)c1-c1nnn[nH]1 [Example 646, 3-[2-[[1-(2-fluoroethyl)-4-piperidyl]amino]-1,3-benzothiazol-4-yl]-2-(1H-tetrazol-5-yl)benzenesulfonamide] | 31.8 | 50 | 3.125 | 100 | – | 0.851 | IC50 (VIM-1; [16]): 5.1 nM |
